Values of other authors as cited in US20250114344A1, “COMBINATORIAL PHARMACOTHERAPY FOR THE RESTORATION OF NEURO-FUNCTION AND COMBINATORIAL PHARMACOLOGICAL COMPOSITION THEREFORE” (Neuro-Innovators, LLC., priority 2022, published 2025).

What was measured:
[1] = compared with aspirin; fewer hemorrhagic events
CYP3A4 = CYP3A4 (Homo sapiens, UniProt P08684)
MANF (a form of BDNF) = details: Prefrontal Cortex and Striatum, compared to controls

Sequence of CYP3A4 (P08684 whole entry, species assumed): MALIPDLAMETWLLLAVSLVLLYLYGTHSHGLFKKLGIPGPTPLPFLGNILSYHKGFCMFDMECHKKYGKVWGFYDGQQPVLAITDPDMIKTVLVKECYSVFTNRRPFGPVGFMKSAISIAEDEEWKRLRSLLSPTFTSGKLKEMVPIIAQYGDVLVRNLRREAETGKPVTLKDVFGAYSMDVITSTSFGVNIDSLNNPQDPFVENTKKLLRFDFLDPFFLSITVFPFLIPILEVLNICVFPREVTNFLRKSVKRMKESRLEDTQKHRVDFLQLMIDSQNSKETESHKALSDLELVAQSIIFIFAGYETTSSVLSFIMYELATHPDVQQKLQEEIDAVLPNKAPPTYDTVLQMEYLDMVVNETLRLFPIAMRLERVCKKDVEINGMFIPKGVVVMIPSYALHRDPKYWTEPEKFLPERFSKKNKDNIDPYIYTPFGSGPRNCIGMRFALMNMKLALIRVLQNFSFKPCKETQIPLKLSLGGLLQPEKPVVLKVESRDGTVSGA

Row | interaction with CYP3A4 (CYP3A4) | Compound | incidence of recurrent stroke [1] | MANF expression (MANF (a form of BDNF))
1 | substrate for CYP3A4 | O=C1CCc2cc(OCCCCc3nnnn3C3CCCCC3)ccc2N1 [Cilostazol] | significantly reduce the incidence of recurrent stroke | –
2 | – | O=C([O-])[O-].[Li+].[Li+] [lithium, Lithium Carbonate] | – | significant increase
